Measured values: patent publication US11008346B2, “Beta-lactamase inhibitors” (priority 2014, dated 2021)
Where two headings read alike, the source gives them in different places.

Experiments:
[1] = target: T1, SHV-5 β-lactamase (Klebsiella pneumoniae, UniProt P0A3M1); assay: β-lactamase enzyme inhibition, SHV-5; format: biochemical
T1 construct: made in house; host or cells: E. coli BL21(DE3)
Method: (§1) For SHV-5, Kpc-2, p99AmpC and OXA-1 β-lactamases, E. coli BL21(DE3) bacterial cells carrying expression plasmids (expressed as native untagged proteins) for the individual β-lactamases were grown in 1 L of Superbroth (Teknova Inc. Hollister, Calif.) supplemented with 100 μg/ml kanamycin selection and 1×5052 (0.5% glycerol, 0.05% glucose and 0.2% α-lactose) at 35° C. for 18-20 hours. Cells were harvested by centrifugation (4,000×g, 4° C., 20 min), resuspended in 50 ml of 10 mM HEPES pH 7.5 ( 1/20 of the initial volume). The cells were lysed by sonication (5 pulses of 45 seconds) at 45 W on ice. The lysates were clarified by centrifugation at 10,000×g for 40 minutes at 4° C. Samples were diluted 5-fold in 50 mM sodium acetate pH 5.0, stored overnight at 4° C., after which they were centrifuged at 10,000×g for 30 minutes to clarify, and filtered through 0.45 μm filters. The samples were loaded onto a 5 ml Capto S sepharose cation exchange column (GE Healthcare) pre-equilibrated with 50 mM sodium acetate pH 5.0. The column was washed with 5 column volumes of 50 mM sodium acetate pH 5.0 to wash out unbound protein and a linear gradient of NaCl (0 to 500 mM) was used to elute the protein (over 16 CV) from the column. Fractions were assayed for […] activity using Centa (Calbiochem, Gibbstown, N.J.) or Nitrocefin (EMD Millipore chemicals, Darmstadt, Germany) as a reporter β-lactamase substrate for activity in the isolated fractions. Active fractions were pooled, concentrated and further purified by gel filtration chromatography on a Superdex 75 prep grade gel filtration column (GE Healthcare, Piscataway, N.J.) pre-equilibrated in 50 mM Hepes pH 7.5, 150 mM NaCl. Active fractions were pooled, concentrated, and quantitated by BCA protein determination (Thermo Scientific, Rockford, Ill.), dialyzed into PBS and frozen at −80° C. in 20% glycerol until use.
(§2) An equal volume of diluted enzyme stock was added, and the plates were incubated at 37° C. for 15 min. Nitrocefin was used as substrate for p99 AmpC, VIM-2 and OXA-1 and dispensed into each well at a final concentration of 100 μM. Absorbance at 486 nm was immediately monitored for 10 min using a Biotek Powerwave XS2 microplate spectrophotometer using the GEN5 software package (Biotek Instruments, Winooski Vt.). In an analogous fashion, imipenem was used as substrate for KPC-2 and Cefotaxime was used for SHV-5, while changes in absorbance upon hydrolysis of the β-lactam ring were monitored at 300 nm and 260 nm respectively in UV-transparent 96-well microtiter assay plates. Maximum rates of hydrolysis were compared to those in control wells (without inhibitors), and percentages of enzyme inhibition were calculated for each concentration of inhibitor. The concentration of inhibitor needed to reduce the initial rate of hydrolysis of substrate by 50% (IC50) was calculated as the residual activity of β-lactamase at 486 nm using GraFit version 7 kinetics software package (Erithacus Software, Surrey, UK).
(§3) Using the methodology described above, examples of the current invention were evaluated for their ability to inhibit β-lactamase enzymes from all four Ambler classifications (A through D). […] NT=Not tested.

[2] = target: T2, KPC-2 β-lactamase (Klebsiella pneumoniae, UniProt Q9F663); assay: β-lactamase enzyme inhibition, KPC-2; format: biochemical
T2 construct: made in house; host or cells: E. coli BL21(DE3)
Method: as §1, §2, §3

[3] = target: T3, VIM-2 metallo β-lactamase (Pseudomonas aeruginosa, UniProt Q9K2N0); assay: β-lactamase enzyme inhibition, VIM-2; format: biochemical; conditions: Nitrocefin 100 μM, 486 nm; 15 min at 37° C. preincubation; read-out: IC50 VIM-2 (Class B)
T3 construct: made in house; host or cells: E. coli BL21(DE3)
Method: For VIM-2 metallo β-lactamase, the procedure was identical with the following exceptions, first the protein was not pH adjusted to pH 5 with 50 mM sodium acetate. Second, the chromatography step was changed to a 5 ml Q sepharose anion exchange column pre-equilibrated with 50 mM Hepes pH 7.5, and elution of the protein was achieved by a linear gradient of NaCl (0-600 mM). Finally, the VIM-2 purification required a second run (3rd step) on the Q sepharose anion exchange column to achieve acceptable purity (>90%).
as §2, §3

[4] = target: T4, p99 AmpC β-lactamase (Enterobacter cloacae, UniProt P05364); assay: β-lactamase enzyme inhibition, p99 AmpC; format: biochemical
T4 construct: made in house; host or cells: E. coli BL21(DE3)
Method: as §1, §2
Using the methodology described above, examples of the current invention were evaluated for their ability to inhibit β-lactamase enzymes from all four Ambler classifications (A through D).

[5] = target: T5, OXA-1 β-lactamase (Escherichia coli, UniProt P13661); assay: β-lactamase enzyme inhibition, OXA-1; format: biochemical; conditions: Nitrocefin 100 μM, 486 nm; 15 min at 37° C. preincubation; read-out: IC50 OXA-1 (Class D)
T5 construct: made in house; host or cells: E. coli BL21(DE3)
Method: as §1, §2, §3

[6] = test system: E. coli ESBL4 expressing CTX-M-15; assay: broth microdilution MIC, E. coli CTX-M-15; format: cell-based; conditions: Fixed CAZ (ceftazidime) 4 μg/mL
Excerpt: (§4) To determine the ability of test compounds to potentiate the inhibition of the growth of bacterial strains that produce beta-lactamase enzymes, classic cell based broth microdilution MIC assays were employed. Six bacteria strains producing beta-lactamase enzymes were used: E. coli expressing the Class A Extended Spectrum Beta-Lactamase (ESBL) CTX-M-15, E. cloacae expressing the Class C P99, K. pneumoniae expressing the Class A carbapenemase KPC-3, P. aeruginosa expressing the Class B carbapenemase VIM-2, K pneumoniae expressing the class A carbapenemase KPC-2 and the class B carbapenemase VIM-4, and S. aureus producing the Class A penicillinase PC-1. The assay was conducted in Cation Adjusted Mueller Hinton Broth (CAMHB, BD #212322, BD Diagnostic Systems, Sparks, Md.). Bacteria strains were grown for 3-5 hours in CAMBH broth. Test compounds were added to a microtiter plate in 2-fold serial dilutions in CAMHB in a final concentration range of 32 μg/mL to 0.25 μg/ml. An overlay of CAMHB containing a Beta-lactam was added to the compounds at a final static concentration of 4 μg/ml. […] In addition to the titration of test compounds the MICs of a panel of control beta-lactams is also tested to ensure the strains are behaving consistently from test to test. Once the test compound and antibiotics are added the plates can be inoculated according to CLSI broth microdilution method. After inoculation the plates are incubated for 16-20 hours at 37° C., then the Minimal Inhibitory Concentration (MIC) of the test compound is determined visually.
(§5) Using the methodology described above, examples of the current invention were evaluated for their ability to inhibit the growth of β-lactamase-producing bacteria in the presence of a β-lactam antibiotic.
(§6) Representative results are shown in Table 4 where A represents an MIC of the fixed β-lactam antibiotic in the presence of >32 µg/mL of a β-lactamase inhibitor of exemplary compounds, B represents the MIC in the presence of between 8 and 32 µg/mL of a β-lactamase inhibitor of exemplary compounds, and C represents the MIC in the presence of ≤4 µg/mL of a β-lactamase inhibitor of exemplary compounds. NT=Not Tested.

[7] = test system: E. cloacae 144200 expressing Class C P99 AmpC; assay: broth microdilution MIC, E. cloacae P99; format: cell-based; conditions: Fixed CAZ (ceftazidime) 4 μg/mL
Excerpt: as §4, §5, §6

[8] = test system: K. pneumoniae 156319 expressing KPC-3; assay: broth microdilution MIC, K. pneumoniae KPC-3; format: cell-based; conditions: Fixed Mero (meropenem) 4 μg/mL
Excerpt: as §4, §5, §6

[9] = test system: K. pneumoniae A-1797 expressing KPC-2 and VIM-4; assay: broth microdilution MIC, K. pneumoniae KPC-2 and VIM-4; format: cell-based; conditions: Fixed Mero (meropenem) 4 μg/mL
Excerpt: as §4, §5, §6

[10] = imipenem substrate, 300 nm, 15 min at 37° C. preincubation, read-out: IC50 KPC-2 (Class A)

T4 sequence (P05364 21-381): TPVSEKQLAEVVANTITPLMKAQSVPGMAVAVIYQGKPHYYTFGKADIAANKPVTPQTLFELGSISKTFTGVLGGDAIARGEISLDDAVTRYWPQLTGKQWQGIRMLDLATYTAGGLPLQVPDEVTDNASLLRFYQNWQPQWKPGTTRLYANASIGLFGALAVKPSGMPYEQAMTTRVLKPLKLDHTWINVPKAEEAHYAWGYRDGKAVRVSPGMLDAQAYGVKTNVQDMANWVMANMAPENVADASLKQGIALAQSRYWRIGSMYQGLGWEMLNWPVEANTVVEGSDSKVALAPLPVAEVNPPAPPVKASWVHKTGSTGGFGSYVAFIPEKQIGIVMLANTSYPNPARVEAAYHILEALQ
T1 sequence (P0A3M1 22-286): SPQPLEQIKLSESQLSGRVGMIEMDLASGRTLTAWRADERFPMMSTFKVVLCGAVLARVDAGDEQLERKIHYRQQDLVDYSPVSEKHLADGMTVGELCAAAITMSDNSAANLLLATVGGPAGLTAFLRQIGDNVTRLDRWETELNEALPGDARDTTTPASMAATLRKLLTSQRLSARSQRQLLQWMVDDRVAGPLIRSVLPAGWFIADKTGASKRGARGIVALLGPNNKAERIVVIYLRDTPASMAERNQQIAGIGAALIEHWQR
T5 sequence (P13661 26-276): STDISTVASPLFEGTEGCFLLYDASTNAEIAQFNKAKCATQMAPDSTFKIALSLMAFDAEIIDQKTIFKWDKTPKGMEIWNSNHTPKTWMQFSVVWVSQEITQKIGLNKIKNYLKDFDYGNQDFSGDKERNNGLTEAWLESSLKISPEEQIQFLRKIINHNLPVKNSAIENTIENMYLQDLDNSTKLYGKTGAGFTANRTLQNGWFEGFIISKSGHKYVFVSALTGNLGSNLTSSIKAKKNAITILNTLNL
T2 sequence (Q9F663 25-293, looked up): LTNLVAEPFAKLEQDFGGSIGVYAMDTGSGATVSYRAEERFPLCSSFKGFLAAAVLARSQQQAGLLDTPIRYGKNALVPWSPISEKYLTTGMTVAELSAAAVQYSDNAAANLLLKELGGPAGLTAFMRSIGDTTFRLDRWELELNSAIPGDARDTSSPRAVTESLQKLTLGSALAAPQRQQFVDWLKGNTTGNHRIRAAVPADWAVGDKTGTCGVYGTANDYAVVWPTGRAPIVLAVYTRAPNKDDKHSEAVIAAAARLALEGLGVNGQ

Row | Structure (SMILES) | IC50 [1] [nM] | IC50 [2] [nM] | IC50 [3] [nM] | IC50 [4] [nM] | IC50 [5] [nM] | MIC of exemplary compounds in presence of fixed β-lactams, E. coli ESBL4 CTX-M-15 [6] | MIC of exemplary compounds in presence of fixed β-lactams, E. cl. 144200 p99 AmpC [7] | MIC of exemplary compounds in presence of fixed β-lactams, K.P. 156319 KPC-3 [8] | MIC of exemplary compounds in presence of fixed β-lactams, K.P. A-1797 KPC-2 VIM-4 [9] | IC50 [2, 10] [nM]
1 | C#CCCC(=O)N[C@H]1Cc2cccc(C(=O)O)c2OB1O [Example 37, (R)-2-Hydroxy-3-pent-4-ynoylamino-3,4-dihydro-2H-benzo[e][1,2]oxaborinine-8-carboxylic acid] | < 100 | < 100 | 1000 to 10000 | < 100 | < 100 | C (C represents the MIC in the presence of ≤4 g/mL of a β-lactamase inhibitor) | C (C represents the MIC in the presence of ≤4 g/mL of a β-lactamase inhibitor) | C (C represents the MIC in the presence of ≤4 g/mL of a β-lactamase inhibitor) | B (B represents the MIC in the presence of between 8 and 32 g/mL of a β-lactamase inhibitor) | 
2 | O=C(CCC(=O)C(F)(F)F)N[C@H]1Cc2cccc(C(=O)O)c2OB1O [Example 38, (R)-2-Hydroxy-3-(5,5,5-trifluoro-4-oxo-pentanoylamino)-3,4-dihydro-2H-benzo[e][1,2]oxaborinine-8-carboxylicacid] | < 100 |  | 1000 to 10000 | < 100 | < 100 | B (B represents the MIC in the presence of between 8 and 32 g/mL of a β-lactamase inhibitor) | C (C represents the MIC in the presence of ≤4 g/mL of a β-lactamase inhibitor) | B (B represents the MIC in the presence of between 8 and 32 g/mL of a β-lactamase inhibitor) | B (B represents the MIC in the presence of between 8 and 32 g/mL of a β-lactamase inhibitor) | 100 to 1000
3 | CC(=O)/C=C/C(=O)N[C@H]1Cc2cccc(C(=O)O)c2OB1O [Example 39, (R)-2-Hydroxy-3-(4-oxo-pent-2-enoylamino)-3,4-dihydro-2H-benzo[e][1,2]oxaborinine-8-carboxylic acid] | < 100 |  | 100 to 1000 | < 100 | < 100 | C (C represents the MIC in the presence of ≤4 g/mL of a β-lactamase inhibitor) | C (C represents the MIC in the presence of ≤4 g/mL of a β-lactamase inhibitor) | B (B represents the MIC in the presence of between 8 and 32 g/mL of a β-lactamase inhibitor) | B (B represents the MIC in the presence of between 8 and 32 g/mL of a β-lactamase inhibitor) | < 100
4 | CC(C)(C)C(=O)CCC(=O)N[C@H]1Cc2cccc(C(=O)O)c2OB1O [Example 40, (R)-3-(5,5-Dimethyl-4-oxo-hexanoylamino)-2-hydroxy-3,4-dihydro-2H-benzo[e][1,2]oxaborinine-8-carboxylic acid] | < 100 |  | 1000 to 10000 | < 100 | < 100 | C (C represents the MIC in the presence of ≤4 g/mL of a β-lactamase inhibitor) | C (C represents the MIC in the presence of ≤4 g/mL of a β-lactamase inhibitor) | B (B represents the MIC in the presence of between 8 and 32 g/mL of a β-lactamase inhibitor) | B (B represents the MIC in the presence of between 8 and 32 g/mL of a β-lactamase inhibitor) | < 100
5 | CC(=O)CC(=O)CCC(=O)N[C@H]1Cc2cccc(C(=O)O)c2OB1O [Example 41, (R)-3-(4,6-Dioxo-heptanoylamino)-2-hydroxy-3,4-dihydro-2H-benzo[e][1,2]oxaborinine-8-carboxylic acid] | < 100 |  | < 100 | < 100 | < 100 | C (C represents the MIC in the presence of ≤4 g/mL of a β-lactamase inhibitor) | C (C represents the MIC in the presence of ≤4 g/mL of a β-lactamase inhibitor) | B (B represents the MIC in the presence of between 8 and 32 g/mL of a β-lactamase inhibitor) | C (C represents the MIC in the presence of ≤4 g/mL of a β-lactamase inhibitor) | 100 to 1000
6 | O=C(CCC(=O)c1ccccc1)N[C@H]1Cc2cccc(C(=O)O)c2OB1O [Example 42, (R)-2-Hydroxy-3-(4-oxo-4-phenyl-butyrylamino)-3,4-dihydro-2H-benzo[e][1,2]oxaborinine-8-carboxylic acid] | < 100 |  | 100 to 1000 | < 100 | < 100 | C (C represents the MIC in the presence of ≤4 g/mL of a β-lactamase inhibitor) | C (C represents the MIC in the presence of ≤4 g/mL of a β-lactamase inhibitor) | B (B represents the MIC in the presence of between 8 and 32 g/mL of a β-lactamase inhibitor) | B (B represents the MIC in the presence of between 8 and 32 g/mL of a β-lactamase inhibitor) | < 100
